The text below walks through data of the supplement of paper PMC6723410.

Each structure is given as a SMILES string.

For this assay, the system named is GUMC-403. Kind of assay: viability at highest tested concentration (max response) relative to DMSO (% of DMSO control); higher = less cytotoxic. The conditions noted are these: library / dose series: MIPE library, 11-point 1:3 dilution, 48 h. Summed up:
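In 1536-well plates, 700 GUMC-403 papilloma cells per well, taken from a patient and grown by conditional reprogramming, were seeded in 5 μL F + Y medium and incubated overnight at 37 °C. Compounds were pinned in at 23 nL in an 11-point 1:3 series, and left for 48 h before CellTiter-Glo luminescence was read on a ViewLux against vehicle (100%) and empty (0%) wells. Reported values are viability at the highest tested concentration relative to vehicle control.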

For the setting “top concentration 46.1 µM”, `C[N+]1(C)[C@@H]2CC(OC(=O)C(O)(c3cccs3)c3cccs3)C[C@H]1[C@@H]1O[C@@H]12` (some centres undefined) had a viability of 127.
`COCCOC(=O)C/1=C(C)/NC/2=C(C1C3=CC=CC(=C3)O)/C(=O)CC(C2)C4=C(OC)C=CC=C4` (centres undefined): for the setting “top concentration 46.1 µM”, the viability is 79.8.
Where the note is “top concentration 46.1 µM”, `O=C(O)/C=C/c1ccc(O)c(O)c1` came in with a viability of 120.
Same read-out and setting: in the case of `CCc1nc(N)nc(N)c1-c1ccc(Cl)cc1` it was 97.1; in that of `COC1=C(N2CCNC(C)C2)C(=CC3=C1N(\C=C(C(O)=O)/C3=O)C4CC4)F` (centres undefined), 120; in that of `Cc1ccc([S+](=O)([O-])NC(=O)NN2CC3CCCC3C2)cc1` (centres undefined), 109.
On the same count and under the same terms, the result for `C=C[C@H]1CN2CCC1C[C@@H]2C(O)c1ccnc2ccc(OC)cc12` (some centres undefined) reads 101; that for `Cc1cnc(NC(=O)Nc2cc(Br)c(C)cc2OC[C@@H]2CNCCO2)cn1`, 110; that for `CC(C)c1c(C(=O)Nc2ccccc2)c(-c2ccccc2)c(-c2ccc(F)cc2)n1CC[C@@H](O)C[C@@H](O)CC(=O)[O-]`, 70.3.
`OC1=CC2=C(C(=O)\C=C(/O2)C3=CC=CC=C3)C(=C1O)O` had a viability (top concentration 46.1 µM) of 114.
Same read-out and setting: the result for `O=NN(CCCl)C(=O)NC1CCCCC1` reads 124.
Regarding `COc1ccc(-c2c(-c3ccc(O)cc3O)n[nH]c2C)cc1`, the viability (top concentration 92.2 µM) was 98.3.
On to `COc1cc(O)c2c(c1)C1OC1C[C@H](O)[C@H](O)C(=O)/C=C\C[C@H](C)OC2=O` (some centres undefined), for which the viability (top concentration 46.1 µM) stood at 107.
In turn, `CC[C@@H]1C(=O)N(C)c2cnc(Nc3ccc(C(=O)NC4CCN(C)CC4)cc3OC)nc2N1C1CCCC1` gave a viability (top concentration 46.1 µM) of 41.8.
Same read-out and setting: in the case of `Cc1ccc(CN2CCNCC2)cc1NC(=O)CNc1ccc(F)c(F)c1` it was 98.9.
The same measure, in the same setting: the result for `CCCCc1ccc2[nH]c(NC(=O)OC)nc2c1` reads 112.
The same measure, in the same setting: the result for `CN1CCN2c3ccccc3Cc3ccccc3C2C1` (centres undefined) reads 106; that for `CCOC(=O)[C@H]1O[C@@H]1C(=O)N[C@@H](CC(C)C)C(=O)NCCC(C)C`, 109; that for `C[C@@H]1CC[C@@]2(OC1)O[C@H]3C[C@H]4[C@@H]5C/C=C6/C[C@H](CC[C@]6(C)[C@H]5CC[C@]4(C)[C@H]3[C@@H]2C)O[C@@H]7O[C@H](CO)[C@@H](O[C@@H]8O[C@@H](C)[C@H](O)[C@@H](O)[C@H]8O)[C@H](O)[C@H]7O[C@@H]9O[C@@H](C)[C@H](O)[C@@H](O)[C@H]9O`, 112.
`NCCCC(N)(C(=O)O)C(F)F` (centres undefined) showed a viability (top concentration 46.1 µM) of 114.
`CO/N=C(/C(=O)N[C@@H]1C(=O)N2C(C(=O)O)=C(Cn3ccc(=N)n3CCO)CS[C@H]12)c1csc(N)n1` returned a viability (top concentration 46.1 µM) of 109.
`NC/1=N/[C@]2(COC[C@H]2CS1)C3=CC(=CC=C3F)NC(=O)C4=NC=C(F)C=C4`: the viability (top concentration 46.1 µM) turned out to be 117.
With `c1ccc(-c2oc3ncnc(NC[C@@H]4CCCO4)c3c2-c2ccccc2)cc1`, the viability (top concentration 46.1 µM) came to 100.
Still for that read-out and setting: the result for `O=C(C=CC#Cc1cccc(N[S+](=O)([O-])c2ccccc2)c1)NO` reads 108.
For `ClC1=CC=C(C=C1)C(C#N)C2=C(Cl)C=C(C=C2Cl)N3\N=C/C(=O)NC3=O` (centres undefined), the viability (top concentration 46.1 µM) came to 125.
Still for that read-out and setting: in the case of `COC(=O)C1=C(C)NC(C)=C(C(=O)OCCN2CCN(C(c3ccccc3)c3ccccc3)CC2)C1c1cccc([N+](=O)[O-])c1.Cl.Cl` (centres undefined) it was 86.5.
Consider `Cc1c(OCC(F)(F)F)ccnc1C[S+]([O-])c1nc2ccccc2[nH]1` (centres undefined), for which, where the note is “top concentration 46.1 µM”, the viability came out at 82.7.
Still for that read-out and setting: in the case of `c1cc(N[C@@H]2CCNC2)nc(-c2cnc3ccc(-c4cn[nH]c4)cn23)c1` it was 122; in that of `C[N+]1(C)[C@@H]2C[C@@H](OC(=O)[C@H](CO)c3ccccc3)C[C@H]1[C@@H]1O[C@@H]12.[Br-]`, 120; in that of `CCN(CC)CCN1C(=O)\C(=N/C2=CC=CC=C12)CC3=CC=C(OC)C=C3`, 129.
Compound `CCCn1c(=O)c2[nH]c(C34CC5CC3C[C@@H](C5)C4)nc2n(CCC)c1=O` came in with a viability (top concentration 46.1 µM) of 122.
Still for that read-out and setting: the result for `CN1CCC(=C2c3ccccc3CCc3sccc32)CC1` reads 115.
The same measure, in the same setting: the result for `C[C@H](NC(=O)c1sccc1OCc1ccc(Cl)cc1)c1ccccc1` reads 95.3; that for `COc1ccc2nc3cc(Cl)ccc3c(Nc3cc(CN4CCCC4)c(O)c(CN4CCCC4)c3)c2n1`, 116; that for `C[C@H](O)[C@H]1[C@@H]2[C@H](C)C(=C(\N2C1=O)C(O)=O)/S[C@@H]3CN[C@H](CN[S+](N)([O-])=O)C3`, 120.
Still for that read-out and setting: the result for `CC(NCCc1ccc(O)cc1)C(O)c1ccc(O)cc1` (centres undefined) reads 124; that for `C#Cc1cccc(Nc2ncnc3cc(OCCOC)c(OCCO)cc23)c1`, 47.5.
`C[C@@H]1CC[C@H]2[C@@H](C)C(=O)O[C@@H]3O[C@@]4(C)CC[C@@H]1[C@]32OO4` had a viability (top concentration 46.1 µM) of 109.
Still for that read-out and setting: the result for `Cl.Nc1ccn([C@@H]2O[C@H](CO)[C@@H](O)C2(F)F)c(=O)n1` reads 107; that for `CN(C)CCc1c[nH]c2ccc(C[S+](=O)([O-])N3CCCC3)cc12`, 78.5; that for `CCC(c1ccc(O)cc1)C(CC)c1ccc(O)cc1` (centres undefined), 116.
`CCOCC(O)COc1ccc(NC(=O)CC[S+](C)C)cc1` (centres undefined) gave a viability (top concentration 46.1 µM) of 111.
The same measure, in the same setting: in the case of `C[C@H](NC(=O)Cc1cc(F)cc(F)c1)C(=O)N[C@@H]1C(=O)N(C)c2ccccc2-c2ccccc21` it was 108; in that of `CN(C)C(=N)NC(=N)N`, 122.
The same measure, in the same setting: the result for `Cc1cc(Nc2nc(N[C@@H](C)c3ncc(F)cn3)ncc2Cl)n[nH]1` reads 163.
In the case of `O=C(CCCCCCC(=O)Nc1ccc([C@H]2O[C@@H](CSc3nc(-c4ccccc4)c(-c4ccccc4)o3)C[C@@H](c3ccc(CO)cc3)O2)cc1)NO`, the viability (top concentration 46.1 µM) turned out to be 115.
On the same count and under the same terms, the result for `OC[C@H]1O[C@H](C[C@@H]1O)N2\C=C(\I)C(=O)NC2=O` reads 127.
Take `Cc1cn([C@H]2C=C[C@@H](CO)O2)c(=O)[nH]c1=O`: the viability (top concentration 92.2 µM) worked out at 92.2.
`CN1C[C@H]2c3ccccc3Oc3ccc(Cl)cc3[C@@H]2C1` yielded a viability (top concentration 46.1 µM) of 91.4.
On to `CCCCC(C=O)NC(=O)C(CC(C)C)NC(=O)OCc1ccccc1` (centres undefined), for which the viability (top concentration 46.1 µM) amounted to 82.
Regarding `O=c1cc(O)c(Cl)c[nH]1`, the viability (top concentration 46.1 µM) is 106.
For the compound `CCCCCCCCCCCCCCCCCCCCCCO`, the viability (top concentration 46.1 µM) was 103.
Take `CNC(=O)c1cc(COc2nnc(Nc3ccc(Cl)cc3)c3ccoc23)ccn1`: the viability (top concentration 46.1 µM) turned out to be 113.
Still for that read-out and setting: the result for `COc1nc(N)nc2c1ncn2[C@@H]1O[C@H](CO)[C@@H](O)[C@@H]1O` reads 120; that for `COc1cc2c(cc1-c1c(C)noc1C)ncc1[nH]c(=O)n([C@H](C)c3ccccn3)c12`, 69.1; that for `N/C(=N\C(=O)c1nc(Cl)c(N)nc1N)NCc1ccccc1`, 130.
Same read-out and setting: the result for `COc1cc2nc(N3CCN(C(=O)C4CCCO4)CC3)nc(N)c2cc1OC` (centres undefined) reads 126; that for `COc1cc(N2CCC(N3CCN(C)CC3)CC2)ccc1Nc1ncnc(Nc2ccccc2[S+](=O)([O-])C(C)C)n1`, 49.4; that for `CNC(=O)c1c(F)cccc1Nc1nc(Nc2cc3c(cc2OC)CCN3C(=O)CN(C)C)nc2[nH]ccc12`, 84.8.
On the same count and under the same terms, the result for `CCCCCCCN(CC)CCCC(O)c1ccc(NS(C)(=O)=O)cc1.CCCCCCCN(CC)CCCC(O)c1ccc(NS(C)(=O)=O)cc1.O=C(O)/C=C/C(=O)O` (centres undefined) reads 106; that for `OC(=O)CNC(=O)\C1=C(/O)C2=CC=CC=C2N(CC3=CC=CC=C3)C1=O`, 108; that for `COc1cc(F)c(F)c(Nc2ccc(I)cc2F)c1N[S+](=O)([O-])C1(C[C@H](O)CO)CC1`, 101.
Under “top concentration 46.1 µM”, `COc1ccc(-c2oc3cc(OC)ccc3c2C(=O)c2ccc(C#N)cc2)cc1` came in with a viability of 142.
`COC(=O)[C@H](c1ccccc1Cl)N1CCc2sccc2C1` returned a viability (top concentration 46.1 µM) of 124.
On the same count and under the same terms, the result for `COc1ccc(CC2SC(=O)NC2=O)cc1C(=O)NCc1ccc(C(F)(F)F)cc1` (centres undefined) reads 95.6; that for `Cc1ncc([N+](=O)[O-])n1CCO`, 106; that for `CCC(=O)O[C@@]1([C@H](C)C[C@H]2[C@@H]3C[C@H](F)\C4=C\C(=O)\C=C/[C@]4(C)[C@@]3(F)[C@@H](O)C[C@]12C)C(=O)SCF`, 162.
On the same count and under the same terms, in the case of `C[C@H]1O[C@H](O[C@H]2[C@H](O)[C@@H](O)[C@H](O[C@@H]2CO)O[C@H]3[C@H](O)[C@@H](O)C(O)O[C@@H]3CO)[C@H](O)[C@@H](O)[C@@H]1N[C@H]4\C=C(CO)/[C@@H](O)[C@H](O)[C@H]4O` (some centres undefined) it was 135.
`C[C@]\12CC[C@H](O)CC1=C/C[C@@H]3[C@@H]2CC[C@@]\4(C)[C@H]3C\C=C4C5=CN=CC=C5`: the viability (top concentration 23 µM) came to 110.
Turning to `C[C@@H](NCc1cc2ccccc2[nH]1)c1cccc2ccccc12`, under “top concentration 46.1 µM”, the viability came to 108.
The same measure, in the same setting: the result for `CC(C)OC(=O)C(C(=O)OC(C)C)=C1S\C=C/S1` reads 104.
`CCc1cc(-c2n[nH]c(C)c2-c2ccc3c(c2)OCCO3)c(O)cc1O` returned a viability (top concentration 46.1 µM) of 88.7.
As for `CCn1cc(-c2ccnc3[nH]c(-c4cccc(CN(C)C)c4)cc23)c(-c2ccc(NC(=O)N(C)C)cc2)n1`, the viability (top concentration 46.1 µM) stood at 54.6.
On the same count and under the same terms, in the case of `CCCCC[C@H](O)/C=C/[C@H]1[C@H](O)CC(=O)[C@@H]1CCCCCCC(=O)O` it was 107.
